# From patent publication US7557142B2, “Therapeutic use of methionine to reduce the toxicity of platinum-containing anti-tumor compounds” (Board of Trustees of Southern Illinois University, priority 1996, dated 2009)
# “Also recorded” adds a separate entry of the source. Where a name gives a salt, the structure may show the parent alone.
# Columns and labels:
# rats = conditions: cited from earlier work; for CDDP nephroprotection: literature (Jones et al.; others)
# [1] = literature; cited from earlier work
# [2] = test system: NHIK 3025 in vitro human uterine cervix carcinoma in situ cancer cells; conditions: methionine, presumably a racemic mixture; Melvik and Petterson, 1987; cited from earlier work
# [3] = literature; cited from earlier work; remark: listed apart in the source
# male Wistar rats [4] = test system: male Wistar rats
# Method: (§1) Complete data sets were obtained for five groups of five male Wistar rats (280-421 g). All animals were anesthetized with […] IM of Rompun cocktail (a solution containing 86.21 mg/ml ketamine and 2.76 mg/ml xylazine) prior to all injections and testing. Anesthesia was supplemented as needed with half doses throughout testing.
# [5] = test system: Walker 256 carcinosarcoma; conditions: rat, in vivo; cited from earlier work
# male Wistar rats [6] = test: Scanning electron microscopy, outer hair cell count per cochlear turn; assay type: in vivo, rat; conditions: for outer hair cell findings, middle and basal turns: versus untreated control, 75, 150, 300 mg/kg D-Met prior to 16 mg/kg CDDP
# Method: as §1
# (§2) ABR data were analyzed using a three factor analysis of variance (ANOVA) with one between subject factor (groups) and two within subject factors (frequency and pre- vs. post-test). Each dependent variable was analyzed independently. Tests subsequent to the ANOVA were carried out in accordance with the Tukey HSD procedure. Weight loss and/or gastrointestinal protection was measured using the same type of statistical analysis as the ABR measures. SEM data were analyzed for each turn using a one way analysis of variance with Post-Hoc Tukey HSD analysis. The criterion for statistical significance for all measures was p≦0.01.
# patients [7] = conditions: human, in vivo; cited from earlier work
# animals = conditions: literature, cited from earlier work
# patients [8] = conditions: cited from earlier work
# hamsters = conditions: Church et al. (1995); cited from earlier work
# [9] = parenteral administration in humans; Printen et al., 1979; cited from earlier work
# male Wistar rats [10] = test: Auditory Brainstem Testing (ABR) of auditory threshold, D-Met before CDDP; assay type: in vivo, rat
# male Wistar rats [11] = test system: male Wistar rats; remark: listed apart in the source
# Method: as §1
# Each animal's weight was measured in an Ohaus triple beam balance scale before administration of the anesthetic for the pretest and again before the post-test 3 days later.
# as §2
# [12] = 16 mg/kg CDDP alone (treated control)
smiles,measurement,setting,value
"CC1(C)S[C@@H]2[C@H](NC(=O)Cc3ccccc3)C(=O)N2[C@H]1C(=O)[O-].[Na+] [sodium salt of penicillin G, penicillin G]",CDDP nephroprotection,rats,does not protect against CDDP nephrotoxicity or weight loss
same,protection against CDDP-induced weight loss,[1],does not protect against CDDP nephrotoxicity or weight loss
C[C@H](CS)C(=O)N1CCC[C@H]1C(=O)O [Captropril],CDDP nephroprotection,rats,protects against CDDP nephrotoxicity
Nc1ccc(S(=O)(=O)Nc2nccs2)cc1 [Sulfathiazole],CDDP nephroprotection,rats,provides protection against CDDP nephrotoxicity
CSCC[C@H](N)C(=O)O (racemic) [methionine],effect of preadministration on CDDP cytotoxicity,[2],sensitized NHIK 3025 in vitro human uterine cervix carcinoma in situ cancer cells to CDDP cytotoxicity
Cc1ncc(C[n+]2csc(CCO)c2C)c(N)n1 [thiamine-HCl],CDDP nephroprotection,rats,does not protect against cisplatin nephrotoxicity or weight loss
same,protection against CDDP-induced weight loss,[1],does not protect against cisplatin nephrotoxicity or weight loss
O=C(O)CCCC[C@@H]1SC[C@@H]2NC(=O)N[C@@H]21 [Biotin],CDDP nephroprotection,rats,good CDDP nephroprotection
same,effect on CDDP anti-tumor action,[3],inhibits anti-tumor activity
"N.N.[Cl][Pt][Cl] [CDDP, cis-diamminedichloroplatinum(II)]",animals surviving to the end of the study period,male Wistar rats [4]; [12],5/10
same,animals that did not survive to the end of the study period,male Wistar rats [4]; [12],50%
same,time to complete redistribution after tumor uptake,[5],≤ 15 min
same,"outer hair cell findings, middle and basal turns",male Wistar rats [6],significantly different findings from the untreated control group
same,patients with hearing loss having complete recovery,patients [7],one of 121
CCOC(=O)[C@@H](N)CS [Ethyl-L-cysteinate],CDDP nephroprotection,rats,exacerbate CDDP nephrotoxicity
"O=S([O-])([O-])=S.[Na+].[Na+] [STS, sodium thiosulfate]",CDDP nephroprotection,rats,reduces CDDP nephrotoxicity
same,CDDP otoprotection,animals; animals,good CDDP otoprotection
same,protection against CDDP-induced weight loss,[1],may exacerbate CDDP-induced weight loss and mortality
same,effect on CDDP anti-tumor action,[3],may reduce CDDP tumoricidal action; also recorded: reduces the latter's tumoricidal action
"CCN(CC)C(=S)S [DDTC, diethyldithiocarbamate]",side effects of the protective agent,animals,can produce severe side effects
CSc1ncccc1C(=O)O [2-(methylthio)nicotinic acid],CDDP nephroprotection,rats,does not provide nephroprotection in rats
CC(S)C(=O)NCC(=O)O (stereo not shown) [N-(2-mercapto-propionyl)glycine],CDDP nephroprotection,rats,exacerbate CDDP nephrotoxicity
NCCCNCCSP(=O)(O)O [WR2721],effect on nausea and vomiting,"patients [8]; Glover et al., 1987",does not ameliorate nausea and vomiting
same,CDDP nephroprotection,"patients [8]; Mollman et al., 1988",excellent CDDP nephroprotection
same,patients with mild to severe hearing loss,"patients [8]; WR2721 prior to CDDP, Glover et al. (1987)",20 of 36
same,incidence of significant hearing threshold shift,"patients [8]; patients pretreated with WR2721 prior to CDDP, Rubin et al. (1995)",45%
same,protection from CDDP ototoxicity or mortality,hamsters,no WR2721 protection from ototoxicity or mortality
CC1=C(C(=O)O)N2C(=O)[C@@H](NC(=O)[C@H](N)c3ccccc3)[C@H]2SC1 [Cephalexin],prevention of CDDP kidney pathology,"rats; Jones et al., 1992",does not prevent kidney pathology
same,CDDP nephroprotection,rats,protects against CDDP-induced kidney dysfunction and weight loss
same,protection against CDDP-induced weight loss,[1],protects against CDDP-induced kidney dysfunction and weight loss
CO[C@@]1(NC(=O)Cc2cccs2)C(=O)N2C(C(=O)O)=C(COC(N)=O)CS[C@@H]21 [cefoxitin],CDDP nephroprotection,rats,does not provide nephroprotection
same,protection against CDDP-induced weight loss,[1],some protection against CDDP-induced weight loss
CSCCC(N)C(=O)O (racemic) [DL-methionine],plasma levels of isomers,[9],higher plasma levels of the D- isomer
CSCC[C@H](N)C(N)=O [L-methioninamide],CDDP nephroprotection,rats,excellent CDDP nephroprotection
same,effect on CDDP anti-tumor action,[3],impairs CDDP anti-tumor action
"CSCC[C@@H](N)C(=O)O [D-Met, D-methionine]",animals with complete otoprotection as defined by no significant ABR threshold shift for any stimulus,"male Wistar rats [10]; 75 mg/kg D-Met i.p. 30 minutes prior to 16 mg/kg CDDP, ABR 3 days later",2/5
same,animals with complete otoprotection as defined by no significant ABR threshold shift for any stimulus,"male Wistar rats [10]; 150 mg/kg D-Met i.p. 30 minutes prior to 16 mg/kg CDDP, ABR 3 days later",3/5
same,animals with complete otoprotection for all stimulus conditions,"male Wistar rats [10]; 300 mg/kg D-Met i.p. 30 minutes prior to 16 mg/kg CDDP, ABR 3 days later",5 animals
same,"ABR thresholds compared with treated control group, all stimuli","male Wistar rats [10]; any level of D-Met (75, 150, 300 mg/kg) prior to 16 mg/kg CDDP, p≦0.01",significantly lower ABR thresholds than the treated control group
same,CDDP nephroprotection,rats,highly effective CDDP nephroprotection
same,alopecia: coat and hair loss versus control group animals,male Wistar rats [4]; D-Met prior to 16 mg/kg CDDP,significantly less hair loss
same,neuroprotection: activity and coordination versus surviving treated controls,"male Wistar rats [4]; morning of the third day, D-Met prior to 16 mg/kg CDDP","noticeably more lively, active, and coordinated"
same,weight loss compared with treated control group,"male Wistar rats [11]; 300 mg/kg D-Met prior to 16 mg/kg CDDP, 3 days",significantly less than that in the treated control group
same,CDDP-induced weight loss versus D-Met dose,"male Wistar rats [11]; 75, 150, 300 mg/kg D-Met prior to 16 mg/kg CDDP",diminished as D-Met dosing increased
same,"hair cell counts, apical turn","male Wistar rats [6]; all groups, apical turn",essentially normal hair cell counts
same,"outer hair cell findings, middle and basal turns",male Wistar rats [6],only the treated control group showed significantly different findings
